Test results reported in US20250091911A1, “NANOFILTRATION SYSTEM AND METHOD INCLUDING PRETREATMENT WITH GREEN SORPTION MEDIA” (University of Central Florida Research Foundation, Inc., priority 2023, published 2025).

Experiments:
[1] = Fixed-bed column pretreatment of spiked C-23 canal water with CPS; conditions: for Removal via column C3: CPS column 3, 9 h; for Removal via column C1 / Removal via column C2 / average removal percentage by media: CPS; for Removal via column C1 / Removal via column C2: 9 h; for average removal percentage by media: triplicate columns
Description: (§1) The water samples were collected from the same site of the C-23 canal during both the dry and wet seasons. However, only wet season water samples were used in the experiment. The water samples were analyzed for both long-chain (PFOA and PFOS) and short-chain (Perfluorobutanoic acid [PFBA] and Perfluorobutanesulfonic acid [PFBS]) PFAS following the modified EPA 537.1 method (Shoemaker & Tettenhorst, 2020). Through this method, an aliquot of a 250 mL water sample containing analytes and internal standards is extracted via solid phase extraction. The extracted analytes and internal standards are then eluted with methanol and ammonium hydroxide in methanol solvent. Then the eluted samples are dried with nitrogen and reconstituted to 1 mL volume with a buffer solution. The samples are then injected into a C18 liquid chromatography column, and the PFAS compounds are separated by a gradient of pure methanol and 20 mM ammonium acetate. Finally, the eluted compounds are detected, and their concentrations are measured via tandem mass spectrometry. The method detection limits (MDLs) for PFBA, PFBS, PFOA, and PFOS were 0.5 ng·L^−1, 2 ng·L^−1, 0.5 ng·L^−1, and 1 ng·L^−1, respectively. The concentration of calcium ion (Ca^2+) was analyzed at Eurofins Flowers's Chemical Laboratories (Altamonte Springs, Florida) following EPA method 6010D using inductively coupled plasma optical emission spectroscopy (MDL=0.096 mg·L^−1). Total organic carbon (TOC) and dissolved organic carbon (DOC) were measured using a TOC analyzer following EPA method 415.3.
(§2) Water samples collected from the C-23 canal were first fortified with PFOS and PFOA and then used as influents to the pretreatment column containing one of the two green sorption media. Note the water samples were not fortified with PFBA and PFBS. The green sorption media effluent served as the feedwater for the nanofiltration unit of the proposed water treatment system. The nanofiltration membrane unit without any green sorption media-based pretreatment served as the “control.” The integration of a green sorption media (CPS or ZIPGEM) with crossflow nanofiltration is herein referred to as a water treatment system, denoted as CPS-nanofiltration or ZIPGEM-nanofiltration. The CPS and ZIPGEM column influents and effluents and nanofiltration permeates were analyzed for both long-chain (PFOS and PFOA) and short-chain (PFBS and PFBA) PFAS. FIG. 3 presents the green sorption media-nanofiltration hybrid treatment scheme.
(§3) C-23 canal water was stored in a walk-in refrigerator at […] after collection. For the pretreatment experiment, a total of 60 L of water was used as influents to the CPS and ZIPGEM columns. Although the raw water was spiked with 70 ng·L^−1 of PFOA and PFOS each, the short-chain PFAS (PFBA, PFBS) were at their indigenous concentrations. A peristaltic pump was used to deliver the water to the columns at a constant flowrate of 14 ml·min^−1. Three columns (triplicate) with 3 ft length and 4-inch diameter containing 2,600 ml of media were set up for each media, and all samples were analyzed in triplicate (FIG. 4). The fixed-bed column experiments were run for more than 48 h, and effluents were taken at different time intervals to be used as feedwaters for the nanofiltration treatment that followed. […] At least 5 L of column effluent were collected to be used as the nanofiltration feed, and the stated effluent at 9 h for CPS was collected from 0 h until 9 h, whereas effluent at 30 h for ZIPGEM was collected from 9 h until 30 h. The collected effluents from the column study were stored in a refrigerator until they were used for the nanofiltration experiment. FIG. 4 illustrates the experimental setup for the pretreatment CPS and ZIPGEM process.
(§4) The average removal efficiencies of each media pretreatment were calculated based on PFAS concentrations in the influents and effluents of triplicate columns, as disclosed in TABLE 5. […]

[2] = Fixed-bed column pretreatment of spiked C-23 canal water with ZIPGEM; conditions: for Removal via column C1: ZIPGEM column 1, 30 h; for Removal via column C2: ZIPGEM column 2, 30 h; for Removal via column C3 / average removal percentage by media: ZIPGEM; for Removal via column C3: 30 h; for average removal percentage by media: triplicate columns
Description: as §1, §2, §3, §4

[3] = Crossflow nanofiltration of CPS-pretreated water; conditions: for PFAS concentration, membrane permeates (MP): CPS-nanofiltration @ 9 h
Description: as §1
A commercially available nanofiltration membrane (membrane ID: XN45) was used for the crossflow nanofiltration experiment. The membranes were acquired as flat sheets and cut into coupons of required sizes (active surface area of 42 cm^2) to fit into a membrane cell (CF042).
A bench-scale crossflow filtration setup was used in these experimental methods. The experimental setup consisted of a feed tank, a centrifugal pump, three CF042 membrane cells connected to pressure gauges, check valves, and flowmeters. A recirculating chiller was used for regulating the temperature at 20° C. Three high-precision balances were used to measure the weight of the collected permeate and to calculate the flowrates. The scales were connected to a computer for data acquisition.
Before each experimental run, the membrane cells and tubing were cleaned by running DI water as feed without placing any membrane coupons inside the cells. Then the membrane coupons were mounted into the cells firmly and compacted at 100 psi for at least 4 h using DI water. After that, 5 L of the effluents from the pretreatment media (i.e., the C-23 water samples that were run through the CPS and ZIPGEM) were taken as feedwater for each nanofiltration filtration experiment. The experiments were run for 24 h before collecting permeates and feed samples for analysis. The experiments were conducted at a constant flowrate of 1.0 L·min^−1, with a corresponding cross flow velocity of 0.18 m·s^−1. The transmembrane pressure was initially set to 110 psi at the beginning of the permeate collection by regulating inlet and retentate valves. However, the pressure changed over time as feed concentration increased during the permeate collection. The experiment was run in total recirculation mode, whereby both the retentate and permeate were recycled, except the time of permeate collection.
The average removal efficiencies of each media pretreatment were calculated based on PFAS concentrations in the influents and effluents of triplicate columns, as disclosed in TABLE 5. […] The overall efficiency of the hybrid treatment was calculated by comparing the average concentrations of PFAS in the influents of the green sorption media pretreatment columns and the nanofiltration permeates, as disclosed in TABLE 6. […]

[4] = cited from earlier work

Row | Compound | Removal via column C3 [1] [%] | Removal via column C1 [1] [%] | Removal via column C2 [1] [%] | average removal percentage by media [1] | Removal via column C1 [2] [%] | Removal via column C2 [2] [%] | Removal via column C3 [2] [%] | average removal percentage by media [2] | PFAS concentration, membrane permeates (MP) ([3]; Col 1) [ng/L] | PFAS concentration, membrane permeates (MP) ([3]; Col 2) [ng/L] | PFAS concentration, membrane permeates (MP) ([3]; Col 3) [ng/L] | nanofiltration membrane removal ([3]; feed = CPS column 1 effluent) [%] | nanofiltration membrane removal ([3]; feed = CPS column 2 effluent) [%] | nanofiltration membrane removal ([3]; feed = CPS column 3 effluent) [%] | pKa [4]
1 | O=C(O)C(F)(F)C(F)(F)C(F)(F)F [PFBA, Perfluorobutanoic acid] | 29 | 21 | 24 | 25 | 5 | 5 | 8 | 6 | 3.20 | 4.17 | 3.60 | 47 | 28 | 33 | 0.40
2 | O=S(=O)(O)C(F)(F)C(F)(F)C(F)(F)C(F)(F)F [PFBS, Perfluorobutanesulfonic acid] | 25 | 20 | 27 | 24 | 6 | 5 | −1 | 3.3 | 3.27 | 3.40 | 2.67 | 26 | 15 | 35 | 0.14
3 | O=C(O)C(F)(F)C(F)(F)C(F)(F)C(F)(F)C(F)(F)C(F)(F)C(F)(F)F [PFOA, Perfluorooctanoic acid] | 88 | 96 | 85 | 90 | 19 | 19 | 4 | 14 | 2.27 | 5.83 | 2.43 | 40 | 58 | 78 | −0.20
4 | O=S(=O)(O)C(F)(F)C(F)(F)C(F)(F)C(F)(F)C(F)(F)C(F)(F)C(F)(F)C(F)(F)F [PFOS, Perfluorooctanesulfonic acid] | 100 | 100 | 100 | 100 | 100 | 100 | 100 | 100 | 2.0 | 1.90 | 0.74 | 100 | 100 | 100 | 0.14
